Data from patent US20260028319A1, “INTERMEDIATE SALT FOR THE PREPARATION OF BIS(FLUOROALKYL) BENZODIAZEPINONE COMPOUNDS” (Immunome, Inc., priority 2022, published 2026).

Tests used:
Format in all cases: physicochemical
[1] = (I-1) and (1) stability study, assay by HPLC; details: for Stability, in words: free acid versus CHA salt; for Assay (by HPLC), Initial Results: before storage
Method: (§1) Assay and water content of the oily free acid (I-1) were tested following a 6-month period in 25° C./60% RH (relative humidity) and 40° C./75% RH (Table 2a).
Similarly, the corresponding CHA salt (1), which is a powder, was tested for its purity/assay:
It could be stipulated that increased water amount over time in the free acid gives rise to the observed assay which deteriorates as the test progresses.

[2] = Stability of Na, CHA and tBuNH2 salts of (I-1), GC/MS assay
Method: Na and tBuNH2 salts of (I-1) were prepared. Stability of the salts was tested and compared to the stability of the CHA salt ((1)).
Table 3 also emphasizes that specific salts of (I-1) provide high purity over time. However, it cannot be said that any possible salt (any possible cation) of (I-1) will give rise to such high stability over time.

[3] = (I-1) and (1) stability study, water content by KF; details: for Water content (by KF) following storage: 6 months; for Water content (by KF), Initial Results: before storage
Method: as §1

SMILES	Assay by HPLC ([1]; 1 month, 2-8° C.) [% w/w]	Assay by HPLC ([1]; 1 month, 25° C./60% RH) [% w/w]	Assay by HPLC ([1]; 1 month, 40° C./75% RH) [% w/w]	Assay by HPLC ([1]; 3 months, 2-8° C.) [% w/w]	Assay by HPLC ([1]; 3 months, 25° C./60% RH) [% w/w]	Assay by HPLC ([1]; 3 months, 40° C./75% RH) [% w/w]	Assay by HPLC ([1]; 6 months, 2-8° C.) [% w/w]	Assay (by HPLC) following storage ([1]; 6 months, 25° C./60% RH) [% w/w]	Assay (by HPLC) following storage ([1]; 6 months, 40° C./75% RH) [% w/w]	Stability, in words [1]	Assay (by HPLC), Initial Results [1] [% w/w]	Purity (GC/MS assay) At 2-8° C. for 1 week ([2]; 2-8° C., 1 week) [% w/w]	Purity (GC/MS assay) At 45° C. for 1 week ([2]; 45° C., 1 week) [% w/w]	Stability among salts of (I-1), in words ([2]; Na, CHA and tBuNH2 salts compared)	Water content (by KF) following storage ([3]; 25° C./60% RH) [%]	Water content (by KF) following storage ([3]; 40° C./75% RH) [%]	Water content (by KF), Initial Results [3] [%]	Stability, in words ([1]; listed as free acid compound)
CC(C)(C)OC(=O)C[C@@H](CCC(F)(F)F)C(=O)O [(1)]	96.2	94.8	94.3	95.1	94.5	93.0	94.6	95.1	94.4	much more stable	95.0	95.8	98.2	most stable salt	0.3	0.3	0.2	–
CC(C)(C)OC(=O)C[C@@H](CCC(F)(F)F)C(=O)O [(I-1), (2R)-2-(2-tert-Butoxy-2-oxoethyl)-5,5,5-trifluoropentanoic acid, reference compound]	–	–	–	–	–	–	–	92.8	84.5	–	93.5	–	–	–	2.0	2.3	0.8	unstable
